Here are results for one compound from patent US11274104B2, “Crystal forms of thiophene derivatives” (Tianjin Hemay Pharmaceutical Co., Ltd, priority 2018, dated 2022).

Common to all, as to type: physicochemical
Data set [1] is described as follows: High temperature stability (40° C., 1 month). On the procedure:
Crystal form II of (S)—N-[5-[1-(3-ethoxy-4-methoxyphenyl)-2-(methylsulfonyl)ethyl]-4,6-dioxo-5,6-dihydro-4H-thieno[3,4-c]pyrrole-1-yl]acetamide prepared according to the process of Example 1 was placed at 40° C. (high temperature). After 1 month, liquid chromatogram and DSC were tested.

Data set [2] in a line: Accelerated stability (40° C., RH 75%, 1 month). As for the experimental part: Crystal form II of (S)—N-[5-[1-(3-ethoxy-4-methoxyphenyl)-2-(methylsulfonyl)ethyl]-4,6-dioxo-5,6-dihydro-4H-thieno[3,4-c]pyrrole-1-yl]acetamide prepared according to the process of Example 1 was placed in a stability text box at 40° C. and Rh=75%. After 1 month, liquid chromatogram and DSC were tested.

Data set [3] in a line: Illumination stability (4500 lux, 1 month). The following applies: liquid chromatogram. As for the experimental part:
Crystal form II of (S)—N-[5-[1-(3-ethoxy-4-methoxyphenyl)-2-(methylsulfonyl)ethyl]-4,6-dioxo-5,6-dihydro-4H-thieno[3,4-c]pyrrole-1-yl]acetamide prepared according to the process of Example 1 was placed in a 4500 lux of illumination box for 1 month. Liquid chromatogram and DSC were tested after 1 month.

The next data set in a line: Grinding stability. The note with it: grinding in a glass mortar for 5 minutes. On the procedure: Crystal form II of (S)—N-[5-[1-(3-ethoxy-4-methoxyphenyl)-2-(methylsulfonyl)ethyl]-4,6-dioxo-5,6-dihydro-4H-thieno[3,4-c]pyrrole-1-yl]acetamide prepared according to the process of Example 1 was ground in a glass mortar for 5 minutes. The ground samples were tested with XRPD.

The nature of data set [4]: Pressure stability (tablet press). The note with it: single punch tablet press, tablet 6 mm, hardness 25-30 N; DSC (FIG. 5). As for the experimental part:
Crystal form II of (S)—N-[5-[1-(3-ethoxy-4-methoxyphenyl)-2-(methylsulfonyl)ethyl]-4,6-dioxo-5,6-dihydro-4H-thieno[3,4-c]pyrrole-1-yl]acetamide was pressed by tablet press machine with single punch. The diameter of the tablet was 6 mm and the hardness was 25-30 N. DSC test was carried out on pressed powder.

Another data set in a line: Hygroscopicity (RH=80%). On the procedure:
Hygroscopicity of crystal form II of (S)—N-[5-[1-(3-ethoxy-4-methoxyphenyl)-2-(methylsulfonyl)ethyl]-4,6-dioxo-5,6-dihydro-4H-thieno[3,4-c]pyrrole-1-yl]acetamide was studied. Crystal form II of (S)—N-[5-[1-(3-ethoxy-4-methoxyphenyl)-2-(methylsulfonyl)ethyl]-4,6-dioxo-5,6-dihydro-4H-thieno[3,4-c]pyrrole-1-yl]acetamide was placed in a drier containing saturated ammonium chloride solution (RH=80%) until weight was balanced. The crystal form was tested with XRPD.
Crystal form II of (S)—N-[5-[1-(3-ethoxy-4-methoxyphenyl)-2-(methylsulfonyl)ethyl]-4,6-dioxo-5,6-dihydro-4H-thieno[3,4-c]pyrrole-1-yl]acetamide prepared according to the process of Example 1 was tested.

Setting [5] is: day 0, before storage at 40° C., liquid chromatogram.
[6] abbreviates: storage at 40° C., 1 month, liquid chromatogram.

Turning to `CCOc1cc([C@@H](CS(C)(=O)=O)N2C(=O)c3csc(NC(C)=O)c3C2=O)ccc1OC` [crystal form II, (S)—N-[5-[1-(3-ethoxy-4-methoxyphenyl)-2-(methylsulfonyl)ethyl]-4,6-dioxo-5,6-dihydro-4H-thieno[3,4-c]pyrrole-1-yl]acetamide], the “stability under high temperature conditions (in words)” value in data set [1] (40° C., 1 month) is given as “good stability”. For the same compound, the “Relevant Substance Contents at Day 0 (%)” value came to 0.10% in data set [1] (setting [5]); 0.11% in data set [2] (setting [5]); 0.06% in data set [3] (day 0, before illumination at 4500 lux). Also, the “Relevant Substance Contents after 1 Month (%)” value amounted to 0.12% in data set [1] (setting [6]); 0.11% in data set [2] (setting [6]); 0.06% in data set [3] (4500 lux, 1 month). The “stability under high-temperature and high-humidity conditions (in words)” value in data set [2] (40° C., 1 month) is recorded as “good stability”. Besides, the “grinding stability (in words)” value in the data set “Grinding stability” is on record as “good grinding stability”. Besides, the “pressure stability (in words)” value in data set [4] was “good stability”. The “hygroscopicity (in words)” value in the data set “Hygroscopicity (RH=80%)” (RH=80%) is “hardly absorbed moisture”. The “Weight Increase” value in “Hygroscopicity (RH=80%)” (RH=80% (saturated ammonium chloride solution) until weight balanced, mAPI 0.497 g) is -0.001 g. In addition, the “Moisture Absorption (%)” value in “Hygroscopicity (RH=80%)” (RH=80% until weight balanced) amounted to 0%. The “Crystal Form after Absorbing Moisture” value in the data set “Hygroscopicity (RH=80%)” (RH=80% until weight balanced, XRPD) is listed as “did not change”.
